System: intestinal epithelial cells F-hiSIEC
Assay: Permeation test of Lucifer yellow across intestinal epithelial cell sheet on cell culture insert
Type: in vitro ADME
Settings: for Permeability coefficient (Papp) Average (mean): 110 μM Lucifer yellow/HBSS, 37° C., 1 hour
Experimental: One gas absorbent (oxygen scavenger) (Anaeropack: Mitsubishi Chemical Corporation) was installed in the upper tank of the cell culture device in FIG. 1, the upper tank portion was sealed, and the sealed upper tank portion was installed on the 6-well plate, which was the lower tank portion. In addition, intestinal epithelial cells F-hiSIEC (FUJIFILM Corporation) were seeded on a cell culture insert (Millipore) coated with Matrigel, and cultured for 9 days according to a manual using F-hiSIEC Culture Medium (FUJIFILM Corporation). 150 μL of F-hiSIEC Culture Medium (FUJIFILM Corporation) was added to an upper surface of the cell culture insert on which the cells on the 9th day of the culture had been seeded, and the cell culture insert was installed in the device from a lower side of the upper tank of the device, using the insertion tool shown in FIG. 5. While sandwiching the cell culture insert, 1 mL of a culture medium was added to a well plate of the lower tank, the upper tank portion of the device was installed in the well plate, and the entire device was placed in a CO2 incubator for culture for 72 hours. After the culture, a trans-epithelial electrical resistance (TEER) value of the intestinal epithelial cells was measured with an EVOM2 system. In addition, the permeation rate (Papp) of Lucifer yellow and the gene expression of various intestinal epithelial cell markers were compared with cells cultured under aerobic conditions in both the upper tank and the lower tank. The aerobic conditions in the upper tank and the lower tank mean cells cultured by installing a lid attached to the well plate without using the co-culture device. In the permeation test of Lucifer yellow, the upper and lower culture media in the insert containing the cells are substituted with HBSS and incubated at 37° C. for 1 hour. […] After 1 hour, the amount of substance which had passed through the lower part of the cell culture insert was quantified by a plate reader (Enspire, PerkinElmer Inc.), and the permeation rate and the permeability coefficient (Papp) were calculated.

- Permeability coefficient (Papp) Average (mean) (F-hiSIEC cells cultured 72 hours in the cell culture device (upper tank anaerobic, lower tank aerobic)): 1.54 ×10⁻⁶ cm/s
- Permeability coefficient (Papp) Average (mean) (F-hiSIEC cells cultured 72 hours under aerobic conditions in both upper and lower tank (no device)): 0.7 ×10⁻⁶ cm/s
- Increase of Papp in anaerobic cultured cells as compared with aerobic cells (anaerobic vs aerobic cultured F-hiSIEC cells, 72 hours culture): approximately 2 times
Substance: Lucifer yellow

— US20240302353A1, “CELL CULTURE DEVICE, KIT FOR CELL CULTURE, AND CELL CULTURE METHOD” (FUJIFILM Corporation, priority 2021, published 2024)
